Consider 27 compounds from patent US20130252944A1, “NOVEL FUSED PYRAZOLE DERIVATIVES AND THEIR USE AS ALLOSTERIC MODULATORS OF METABOTROPIC GLUTAMATE RECEPTORS” (priority 2010, published 2013).

This assay addresses T1, recombinant human mGluR4a receptors (Homo sapiens, UniProt Q14833).
T1 construct: expressed in transfected cells
The assay can be described thus: Fluorescent cell based Ca2+ mobilization assay (FLIPR) on HEK-293 cells expressing human mGluR4. As to conditions: positive allosteric modulation in presence of EC25 glutamate; HEK-293 hmGluR4; mean of at least three independent experiments in duplicate; read-out: Ca^2+ Flux (mean EC50). An excerpt: mGluR4 Assay on HEK-Expressing Human mGluR4
The compounds of the present invention are positive allosteric modulators of mGluR4 receptor. Their activity was examined on recombinant human mGluR4a receptors by detecting changes in intracellular Ca^2+concentration, using the fluorescent Ca^2+-sensitive dye Fluo4-(AM) and a Fluorometric Imaging Plate Reader (FLIPR, Molecular Devices, Sunnyvale, Calif.).
The cDNA encoding the human metabotropic glutamate receptor (hmGluR4), (accession number NM_000841.1, NCBI Nucleotide database browser), was subcloned into an expression vector containing also the hygromycin resistance gene. In parallel, the cDNA encoding a G protein allowing redirection of the activation signal to intracellular calcium flux was subcloned into a different expression vector containing also the puromycin resistance gene. Transfection of both these vectors into HEK293 cells with PolyFect reagent (Qiagen) according to supplier's protocol, and hygromycin and puromycin treatment allowed selection of antibiotic resistant cells which had integrated stably one or more copies of the plasmids. Positive cellular clones expressing hmGluR4 were identified in a functional assay measuring changes in calcium fluxes in response to glutamate or selective known mGluR4 orthosteric agonists and antagonists.
HEK-293 cells expressing hmGluR4 were maintained in media containing DMEM, dialyzed Fetal Calf Serum (10%), Glutamax™ (2 mM), Penicillin (100 units/mL), Streptomycin (100 μg/mL), Geneticin (100 μg/mL) and Hygromycin-B (40 μg/mL) and puromycin (1 μg/mL) at 37° C./5% CO2.
Human mGluR4 HEK-293 cells were plated out 24 hours prior to FLIPR^384 assay in black-walled, clear-bottomed, poly-L-ornithine-coated 384-well plates at a density of 25,000 cells/well in a glutamine/glutamate free DMEM medium containing foetal bovine serum (10%), penicillin (100 units/mL) and streptomycin (100 μg/mL) at 37° C./5% CO2.
On the day of the assay, the medium was aspirated and the cells were loaded with a 3 μM solution of Fluo4-AM (LuBioScience, Lucerne, Switzerland) in 0.03% pluronic acid. After 1 hour at 37° C./5% CO2, the non incorporated dye was removed by washing cell plate with the assay buffer and the cells were left in the dark at room temperature for […] before testing. All assays were performed in a pH=7.4 buffered-solution containing 20 mM HEPES, 143 mM NaCl, 6 mM KCl, 1 mM MgSO4, 1 mM CaCl2, 0.125 mM sulfapyrazone and 0.1% glucose.
After 10 s of basal fluorescence recording, various concentrations of the compounds of the invention were added to the cells. Changes in fluorescence levels were first monitored for 180 s in order to detect any agonist activity of the compounds. Then the cells were stimulated by an EC25 glutamate concentration for an additional 110 s in order to measure enhancing activities of the compounds of the invention. EC25 glutamate concentration is the concentration giving 25% of the maximal glutamate response.
The concentration-response curves of representative compounds of the present invention were generated using the Prism GraphPad software (Graph Pad Inc, San Diego, USA). The curves were fitted to a four-parameter logistic equation:
(Y=Bottom+(Top−Bottom)/(1+10̂((LogEC50−X)*Hill Slope)
allowing the determination of EC50 values.
The Table 3 below represents the mean EC50 obtained from at least three independent experiments of selected molecules performed in duplicate.
On the technique in general: Calcium flux is commonly read through the fluorescence of an indicator in the cells.

T1 sequence (Q14833 33-912): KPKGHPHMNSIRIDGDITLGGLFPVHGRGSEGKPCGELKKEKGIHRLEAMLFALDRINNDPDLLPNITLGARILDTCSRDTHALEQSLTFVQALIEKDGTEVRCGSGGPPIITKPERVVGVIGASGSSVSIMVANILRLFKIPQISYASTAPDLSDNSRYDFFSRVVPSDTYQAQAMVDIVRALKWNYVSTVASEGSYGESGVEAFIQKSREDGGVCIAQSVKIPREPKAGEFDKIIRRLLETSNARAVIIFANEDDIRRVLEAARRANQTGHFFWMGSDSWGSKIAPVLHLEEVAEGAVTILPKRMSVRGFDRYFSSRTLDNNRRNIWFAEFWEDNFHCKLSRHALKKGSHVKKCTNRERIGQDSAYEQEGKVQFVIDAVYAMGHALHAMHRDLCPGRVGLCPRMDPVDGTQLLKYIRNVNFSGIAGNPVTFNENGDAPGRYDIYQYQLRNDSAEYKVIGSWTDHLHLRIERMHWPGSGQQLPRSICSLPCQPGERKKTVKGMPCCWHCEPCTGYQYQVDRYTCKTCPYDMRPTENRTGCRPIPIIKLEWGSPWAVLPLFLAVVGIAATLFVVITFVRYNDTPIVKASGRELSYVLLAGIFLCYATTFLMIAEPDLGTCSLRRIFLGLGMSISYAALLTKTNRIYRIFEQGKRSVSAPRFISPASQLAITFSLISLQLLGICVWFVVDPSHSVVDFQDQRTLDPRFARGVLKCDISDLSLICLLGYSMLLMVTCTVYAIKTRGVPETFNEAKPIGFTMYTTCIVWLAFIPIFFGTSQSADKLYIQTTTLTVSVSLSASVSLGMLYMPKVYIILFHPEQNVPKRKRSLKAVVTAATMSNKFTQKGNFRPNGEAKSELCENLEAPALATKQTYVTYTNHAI

On to `Cc1ccnc(Nc2nc3c(s2)CCC(O)c2[nH]ncc2-3)n1` (stereo not drawn) [Compound 1-3, 2-(4-Methyl-pyrimidin-2-ylamino)-4,5,6,7-tetrahydro-3-thia-1,7,8-triaza-cyclopenta[e]azulen-6-ol], for which the EC50 is 100 to 1000 nM.

For the compound `CCC1OCc2sc(Nc3ncc(F)c(C)n3)nc2-c2cn[nH]c21` (stereo not drawn) [Compound 1-21, (6-Ethyl-6,7-dihydro-4H-5-oxa-3-thia-1,7,8-triaza-cyclopenta[e]azulen-2-yl)-(5-fluoro-4-methyl-pyrimidin-2-yl)-amine], the EC50 is less than 100 nM.

For the compound `Cc1ccnc(Nc2nc3c(s2)CC(C)Cc2n[nH]cc2-3)n1` (stereo not drawn) [Compound 1-11, (4-Methyl-pyrimidin-2-yl)-(5-methyl-4,5,6,8-tetrahydro-3-thia-1,7,8-triaza-cyclopenta[e]azulen-2-yl)-amine], the EC50 fell in the range of 100 to 1000 nM.

Consider `CC(C)C1OCc2sc(Nc3cccc(F)n3)nc2-c2cn[nH]c21` (stereo not drawn) [Compound 1-26, (6-Fluoro-pyridin-2-yl)-(6-isopropyl-6,7-dihydro-4H-5-oxa-3-thia-1,7,8-triaza-cyclopenta[e]azulen-2-yl)-amine], for which the EC50 fell in the range of 100 to 1000 nM.

Turning to `COC1CCc2sc(Nc3nccc(C)n3)nc2-c2cn[nH]c21` (stereo not drawn) [Compound 1-24, (6-Methoxy-4,5,6,7-tetrahydro-3-thia-1,7,8-triaza-cyclopenta[e]azulen-2-yl)-(4-methyl-pyrimidin-2-yl)-amine], the EC50 is less than 100 nM.

Take “Dimethyl-carbamic acid 2-(4-methyl-pyrimidin-2-ylamino)-4,5,6,6a,7,8-hexahydro-3-thia-1,7,8-triaza-cyclopenta[e]azulen-5-yl ester [Compound 1-6]”: the 50% effective concentration (EC50) lay within 100 to 1000 nM.

Consider `COC1Cc2n[nH]cc2-c2nc(Nc3nccc(C)n3)sc2C1` (stereo not drawn) [Compound 1-15, (5-Methoxy-4,5,6,8-tetrahydro-3-thia-1,7,8-triaza-cyclopenta[e]azulen-2-yl)-(4-methyl-pyrimidin-2-yl)-amine], for which the EC50 fell in the range of 100 to 1000 nM.

Turning to `Cc1nc(Nc2nc3c(s2)COC(C(C)C)c2[nH]ncc2-3)ncc1F` (stereo not drawn) [Compound 1-29, (5-Fluoro-4-methyl-pyrimidin-2-yl)-(6-isopropyl-6,7-dihydro-4H-5-oxa-3-thia-1,7,8-triaza-cyclopenta[e]azulen-2-yl)-amine], the EC50 fell in the range of 100 to 1000 nM.

With `CCC1OCc2sc(Nc3nsc(C)n3)nc2-c2c[nH]nc21` (stereo not drawn) [Compound 1-20, (6-Ethyl-6,8-dihydro-4H-5-oxa-3-thia-1,7,8-triaza-cyclopenta[e]azulen-2-yl)-(5-methyl-[1,2,4]thiadiazol-3-yl)-amine], the EC50 was less than 100 nM.

`Cc1ccnc(Nc2nc3c(s2)CC(C)(C)C(F)(F)c2[nH]ncc2-3)n1` [Compound 1-9, (6,6-Difluoro-5,5-dimethyl-4,5,6,7-tetrahydro-3-thia-1,7,8-triaza-cyclopenta[e]azulen-2-yl)-(4-methyl-pyrimidin-2-yl)-amine]: the EC50 was 100 to 1000 nM.

Consider `Cc1ccnc(Nc2nc3c(s2)COC(C(F)(F)F)c2n[nH]cc2-3)n1` (stereo not drawn) [Compound 1-13, (4-Methyl-pyrimidin-2-yl)-(6-trifluoromethyl-6,8-dihydro-4H-5-oxa-3-thia-1,7,8-triaza-cyclopenta[e]azulen-2-yl)-amine], for which the EC50 is less than 100 nM.

On to `Cc1ccnc(Nc2nc3c(s2)COC(c2ccccn2)c2[nH]ncc2-3)n1` (stereo not drawn) [Compound 1-31, (4-Methyl-pyrimidin-2-yl)-(6-pyridin-2-yl-6,7-dihydro-4H-5-oxa-3-thia-1,7,8-triaza-cyclopenta[e]azulen-2-yl)-amine], for which the 50% effective concentration (EC50) is less than 100 nM.

Turning to `CCC1OCc2sc(Nc3nccc(C)n3)nc2-c2c[nH]nc21` (stereo not drawn) [Compound 1-8, (6-Ethyl-6,8-dihydro-4H-5-oxa-3-thia-1,7,8-triaza-cyclopenta[e]azulen-2-yl)-(4-methyl-pyrimidin-2-yl)-amine], the EC50 is less than 100 nM.

`CCC1OCc2sc(Nc3ncc(F)cn3)nc2-c2c[nH]nc21` (stereo not drawn) [Compound 1-19, (6-Ethyl-6,8-dihydro-4H-5-oxa-3-thia-1,7,8-triaza-cyclopenta[e]azulen-2-yl)-(5-fluoro-pyrimidin-2-yl)-amine]: the EC50 is less than 100 nM.

`Cc1cc2[nH]ncc2c2nc(Nc3ccccn3)sc12` [Compound 1-1, (4-Methyl-6H-3-thia-1,6,7-triaza-as-indacen-2-yl)-pyridin-2-yl-amine]: the EC50 fell in the range of 1000 to 10000 nM.

As for `Cc1ccnc(Nc2nc3c(s2)CCC(C)c2n[nH]cc2-3)n1` (stereo not drawn) [Compound 1-12, (4-Methyl-pyrimidin-2-yl)-(6-methyl-4,5,6,8-tetrahydro-3-thia-1,7,8-triaza-cyclopenta[e]azulen-2-yl)-amine], the EC50 is less than 100 nM.

`Cc1ccnc(Nc2nc3c(s2)CC(F)(F)Cc2n[nH]cc2-3)n1` [Compound 1-18, (5,5-Difluoro-4,5,6,8-tetrahydro-3-thia-1,7,8-triaza-cyclopenta[e]azulen-2-yl)-(4-methyl-pyrimidin-2-yl)-amine]: the EC50 was less than 100 nM.

Consider `Cc1nc(Nc2nc3c(s2)C(=O)CCc2n[nH]cc2-3)ncc1F` [Compound 1-30, 2-(5-Fluoro-4-methyl-pyrimidin-2-ylamino)-6,8-dihydro-5H-3-thia-1,7,8-triaza-cyclopenta[e]azulen-4-one], for which the EC50 is 1000 to 10000 nM.

Regarding `CC1OCc2sc(Nc3cccc(F)n3)nc2-c2c[nH]nc21` (stereo not drawn) [Compound 1-23, (6-Fluoro-pyridin-2-yl)-(6-methyl-6,8-dihydro-4H-5-oxa-3-thia-1,7,8-triaza-cyclopenta[e]azulen-2-yl)-amine], the concentration giving a half-maximal response (EC50) is less than 100 nM.

As for “(6-Isopropyl-6,7-dihydro-4H-5-oxa-3-thia-1,7,8-triaza-cyclopenta[e]azulen-2-yl)-(5-methyl-[1,2,4]thiadiazol-3-yl)-amine [Compound 1-25]”, the EC50 was in the range of 100 to 1000 nM.

In the case of `Cc1ccnc(Nc2nc3c(s2)C(C)(C)OCc2n[nH]cc2-3)n1` [Compound 1-4, (4,4-Dimethyl-6,8-dihydro-4H-5-oxa-3-thia-1,7,8-triaza-cyclopenta[e]azulen-2-yl)-(4-methyl-pyrimidin-2-yl)-amine], the EC50 lay within 100 to 1000 nM.

For the compound `Cc1ccnc(Nc2nc3c(s2)C(C)(C)OC(C)c2n[nH]cc2-3)n1` (stereo not drawn) [Compound 1-2, (4-Methyl-pyrimidin-2-yl)-(4,4,6-trimethyl-6,8-dihydro-4H-5-oxa-3-thia-1,7,8-triaza-cyclopenta[e]azulen-2-yl)-amine], the EC50 lay in the range of 1000 to 10000 nM.

With `CCCC1Cc2sc(Nc3nccc(C)n3)nc2-c2cn[nH]c21` (stereo not drawn) [Compound 1-5, (4-Methyl-pyrimidin-2-yl)-(5-propyl-5,6-dihydro-4H-3-thia-1,6,7-triaza-as-indacen-2-yl)-amine], the EC50 is 100 to 1000 nM.

Regarding `Cc1ccnc(Nc2nc3c(s2)COC(C(C)C)c2n[nH]cc2-3)n1` (stereo not drawn) [Compound 1-16, (6-Isopropyl-6,8-dihydro-4H-5-oxa-3-thia-1,7,8-triaza-cyclopenta[e]azulen-2-yl)-(4-methyl-pyrimidin-2-yl)-amine], the concentration for a half-maximal effect (EC50) is less than 100 nM.

Turning to `Cc1ccnc(Nc2nc3c(s2)CCOc2n[nH]cc2-3)n1` [Compound 1-17, (4,8-Dihydro-5H-6-oxa-3-thia-1,7,8-triaza-cyclopenta[e]azulen-2-yl)-(4-methyl-pyrimidin-2-yl)-amine], the EC50 is less than 100 nM.

Take `Cc1ccnc(Nc2nc3c(s2)CCCCc2[nH]ncc2-3)n1` [Compound 1-7, (4-Methyl-pyrimidin-2-yl)-(5,6,7,8-tetrahydro-4H-3-thia-1,8,9-triaza-dicyclopenta[a,c]cycloocten-2-yl)-amine]: the EC50 is 100 to 1000 nM.

As to `Cc1ccnc(Nc2nc3c(s2)COC(C)(C)c2n[nH]cc2-3)n1` [Compound 1-10, (6,6-Dimethyl-6,8-dihydro-4H-5-oxa-3-thia-1,7,8-triaza-cyclopenta[e]azulen-2-yl)-(4-methylpyrimidin-2-yl)-amine], the EC50 was less than 100 nM.

As a reminder, the EC50 is the concentration needed to bring the measured effect to its halfway point.
